ChEMBL document CHEMBL1134463 (2001)
Calls of active or inactive are those of the source. No cut-off for these calls is given here.

Experiments:
[1] = molecular target: Neuronal acetylcholine receptor subunit alpha-7 (Rattus norvegicus) (UniProt Q05941); experiment: Agonistic activity against rat nicotinic acetylcholine receptor alpha-7 expressed in Xenopus oocytes; NA=inactive; type: functional, cell-based; settings: Oocyte
[2] = molecular target: T1, Neuronal acetylcholine receptor; alpha3/beta4 (Homo sapiens) (UniProt P30926+P32297); experiment: Agonistic activity against Alpha3 beta4 Nicotinic receptor from Xenopus oocytes expressing recombinant nAChR from rat; NA=inactive; type: functional, cell-based; settings: Oocyte
[3] = molecular target: Neuronal acetylcholine receptor; alpha4/beta2 (Homo sapiens) (UniProt P17787+P43681); experiment: Agonistic activity against rat Nicotinic acetylcholine receptor alpha4-beta2 expressed in Xenopus oocytes; NA=inactive; type: functional, cell-based; settings: Oocyte
[4] = molecular target: Neuronal acetylcholine receptor subunit alpha-7 (Rattus norvegicus) (UniProt Q05941); experiment: Agonistic activity against rat nicotinic acetylcholine receptor alpha-7 expressed in Xenopus oocytes; type: functional, cell-based; settings: Oocyte
[5] = species: Rattus norvegicus; experiment: Agonistic activity against Rat muscle Nicotinic Receptor; type: functional
[6] = tested on: Neuronal acetylcholine receptor alpha4/beta2 (Rattus norvegicus); experiment: Agonistic activity against rat Nicotinic acetylcholine receptor alpha4-beta2 expressed in Xenopus oocytes; settings: Oocyte
[7] = tested on: Neuronal acetylcholine receptor alpha3/beta4 (Rattus norvegicus); experiment: Agonistic activity against Alpha3 beta-4 Nicotinic receptor from Xenopus oocytes expressing recombinant nAChR from rat; settings: Oocyte
[8] = molecular target: T1, Neuronal acetylcholine receptor; alpha3/beta4 (Homo sapiens); experiment: Agonistic activity against rat Alpha3 beta-4 Nicotinic Receptor expressed in Xenopus oocytes; type: functional, cell-based; settings: Oocyte
[9] = molecular target: T1, Neuronal acetylcholine receptor; alpha3/beta4 (Homo sapiens); experiment: Agonistic activity against rat Alpha3 beta-4 Nicotinic Receptor expressed in Xenopus oocytes; NA=inactive; type: functional, cell-based; settings: Oocyte

Sequence of Neuronal acetylcholine receptor subunit alpha-7 (Rattus norvegicus) (Q05941 whole entry): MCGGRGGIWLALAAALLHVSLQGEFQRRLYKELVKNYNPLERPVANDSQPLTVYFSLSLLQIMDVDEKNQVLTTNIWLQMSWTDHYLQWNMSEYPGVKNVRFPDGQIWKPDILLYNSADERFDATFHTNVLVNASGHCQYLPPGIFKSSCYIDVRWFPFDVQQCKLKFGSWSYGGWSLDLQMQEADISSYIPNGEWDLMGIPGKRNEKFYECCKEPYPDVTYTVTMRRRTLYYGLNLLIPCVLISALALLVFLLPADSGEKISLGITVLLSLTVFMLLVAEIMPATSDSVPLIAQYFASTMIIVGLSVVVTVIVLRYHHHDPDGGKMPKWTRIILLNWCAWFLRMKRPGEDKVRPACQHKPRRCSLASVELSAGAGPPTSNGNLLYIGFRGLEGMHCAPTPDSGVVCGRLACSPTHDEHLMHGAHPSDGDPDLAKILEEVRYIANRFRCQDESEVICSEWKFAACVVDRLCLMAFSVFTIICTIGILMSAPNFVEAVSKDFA

Compound | Activity [1] | Activity [4] [µM] | Activity [5] [µM] | Activity [6] [µM] | further results
FC(F)(F)c1cc(C2CC3CCC2N3)c(C(F)(F)F)nn1 (stereo not given) | inactive |  |  |  | Activity [2]: inactive; Activity [3]: inactive
c1cc(C2CC3CCC2N3)cnn1 (stereo not given) |  | 40 | 0.16 | 0.02 | Activity [7]: 0.16 µM
Clc1ccc(C2CC3CCC2N3)cn1 (racemic) [EPIBATIDINE] |  | 0.5 | 0.03 |  | Activity [8]: 0.005 µM
CCOC(=O)N1C2CC[C@@H]1CC2c1cc(Cl)nnc1Cl (stereo not given in full) | inactive |  |  |  | Activity [9]: inactive; Activity [3]: inactive
CC(=O)OCC[N+](C)(C)C [ACETYLCHOLINE] |  | 50 | 0.1 |  | 
CN1C2CC[C@@H]1CC2c1ccnnc1 (stereo not given in full) |  | 25 | 0.2 | 0.013 | Activity [7]: 0.32 µM
CCOC(=O)N1C2CC[C@@H]1CC2c1ccnnc1 (stereo not given in full) | inactive |  | >100 | > 100 | Activity [2]: inactive
CN1CCC[C@H]1c1cccnc1.O=C(O)C(O)C(O)C(=O)O.O=C(O)C(O)C(O)C(=O)O |  | 12.6 | 6.3 |  | 
